The structures appear in SMILES notation. Where two headings read alike, the source gives them in different places.

For series [1] the following is noted: 0.2 wt. % Tween 20. As for the experimental part:
A 30 wt. % nicotine HCl solution is prepared in water. To that solution is added 0.1 wt. % hydroxyethyl cellulose and 0.2 wt. % of the surfactant Tween 20. The coating solution is then applied to the microprojections using the coating methods described in U.S. Publication No. 2002/0132054.
(§1) An aqueous solution consisting of 5 wt. % nicotine base, 5 wt. % hydroxypropyl methylcellulose (HPMC, Methocel E5 premium LV EP JP, Dow Chemical Company, Midland Mich.) and 0.2 wt. % Tween 20 is prepared. The coating solution is then applied to the microprojections using the coating methods described in U.S. Publication No. 2002/0132054.

The conditions of series [2]: 2 cm^2 device coated with ca. 300 micrograms nicotine HCl, applied in humans with applicator.
For series [3] the following is noted: 2 cm^2 device coated with ca. 400 micrograms nicotine base; essentially immediate delivery on application to the skin. On the procedure: as §1
The procedure of series [4]: An aqueous solution containing 40 wt. % nicotine hydrogen tartrate was prepared. Sufficient fluorescein was added to the solution to generate a 0.001 M concentration. This agent was used to assess the quality of the coating after drying.
A strip of titanium foil was prepared by washing the surface with acetone and drying. Five microliters of the coating solution (or formulation) was applied and dried for four hours at room temperature.

Take `CN1CCCC1c1cccnc1.Cl` (stereo not drawn) [nicotine HCl]: the “coating distribution across the projections” value in series [1] (30 wt. % nicotine HCl in water, 0.1 wt. % hydroxyethyl cellulose) was “well distributed across the projections”. Moreover, the “delivery of the nicotine contained on the projections” value in series [2] was “more than 70%”.
Take `CN1CCC[C@H]1c1cccnc1` [nicotine base]: in series [1] (aqueous 5 wt. % nicotine base, 5 wt. % HPMC), the “coating distribution across the projections” value is reported as “well distributed across the projections”. Moreover, the “amount of nicotine base delivered to the user” value in series [3] is listed as 300 micrograms.
Turning to `CN1CCCC1c1cccnc1.O=C(O)C(O)C(O)C(=O)O` (stereo not drawn) [nicotine hydrogen tartrate], the “quality of the coating” value in series [4] (aqueous 40 wt. % nicotine hydrogen tartrate with 0.001 M fluorescein, 5 microliters on titanium foil, dried four hours at room temperature, no wetting agent) is “very poor”; in series [4] (same coating solution with 0.1 wt. % hydroxyethyl cellulose added), “noticeably improved”.
